For test [1], the system named is collagen type 1 alpha 1 (COL1A1) mRNA expression. The experiment in a line: Collagen production assay (COL1A1 mRNA expression). The format is cell-based. On the procedure:
HDF/TERT166 working lot cells can be thawed from liquid nitrogen and expanded using standard conditions (Medium: DMEM/Ham's F12 basal medium supplemented with 1× GlutaMax-I and 10% FBS without antibiotics; 37° C. 5% CO2). For performing the treatment, cells can be seeded at a cell density of 7500 cells/cm^2 in 12-well plates the day before the first treatment. Cells can be seeded in starvation medium (DMEM/Ham's F12 basal medium supplemented with 1× GlutaMax-I and 0.5% FBS without antibiotics). Approximately 24 hours after seeding the substances can be dissolved in DMSO (stocks: 10 mM) and diluted in starvation medium to a final concentration of 10 μM. Half of this working dilution can be supplemented with 100 pg/mL TGFbeta. For each substance, two wells can be treated with a 10 μM concentration of the substance and a 10 μM concentration supplemented with 100 pg/mL TGF-beta. In parallel, cells can be treated with 100 pg/mL TGF-beta alone. Cells in starvation medium can serve as a control. For all cells treatment can be done by performing a medium exchange. […]
RNA extraction can be performed with 200 μL Chloroform, and phase separation can be achieved by centrifugation for 15 min at 12,000 g at 4° C. […] RNA concentration can be determined spectrophotometrically with a Nanodrop instrument. […]

A further test deals with TNIK (Homo sapiens (Human), UniProt Q9UKE5). The test can be described thus: TNIK enzymatic assay (radiometric kinase inhibition). The format is biochemical. As to conditions: read-out: TNIK_IC50. On the procedure: The compounds were studied for function as TNIK inhibitors to generate the data of Table 1. […] (specific activity and concentration as required). The reaction is initiated by the addition of the Mg/ATP mix. After incubation for 40 minutes at room temperature, the reaction is stopped by the addition of phosphoric acid to a concentration of 0.5%.

A further test has as its target MAP4K4 (h) (Homo sapiens (Human), UniProt O95819). The experiment in a line: MAP4K4 in vitro kinase assay (radiometric). Format: biochemical. Conditions: read-out: MAP4K4_IC50. On the procedure:
(specific activity and concentration as required). The reaction is initiated by the addition of the Mg/ATP mix. After incubation for 40 minutes at room temperature, the reaction is stopped by the addition of phosphoric acid to a concentration of 0.5%.

The test system of test [2] is Human hepatic stellate cell LX-2. The experiment in a line: LX-2 fibrosis assay, collagen production. Format: cell-based. As to conditions: LX-2 cells stimulated with 4 ng/mL TGF-b for 48 hours, Western blot. On the procedure: Human hepatic stellate cell LX-2 were grown in DMEM (Invitrogen, 11960) supplied with 1% MEM Non-Essential Amino Acids (Invitrogen, 11140-050), 2% fetal bovine serum (Hyclone, SV30087.03), Penicillin (100 U/mL)-streptomycin (100 μg/mL) (Millipore, TMS-AB2-C) and 2 mM L-Glutamine (Invitrogen, 25030-001). After the cells grew in 12-well plates for 24 hours, the cell culture medium was changed to the same as above except using 0.4% fetal bovine serum. After 20 hour growth in the reduced serum medium, the cells were treated with indicated doses of compounds for 30 minutes. Subsequently, the cells were stimulated with 4 ng/mL TGF-b (R&D Systems, 240-B-002) for 48 hours. The cells were rinsed twice with DPBS before being harvested with 100 μL RIPA buffer (Sigma, R10278) supplemented with protease inhibitor cocktail (Roche, 04693132001) at 4° C. The total protein in each sample was quantified using BCA Protein Assay Kit (Pierce™, 23227) and equal amount of total protein of each sample was subject to Western blot analysis. Antibodies used were mouse anti-α-Actin (SPM332) ([…]), mouse anti-CTGF (E5) ([…]), and mouse anti-collagen α1 (3G3) (sc-293182), from Santa Cruz Biotechnologies; and mouse anti-GAPDH (6C5) (EMD Millipore, MAB374).

The EC50 is the concentration needed to bring the measured effect to its halfway point. A lower EC50 goes with a more potent agent.

Sequence of TNIK (Q9UKE5 whole entry): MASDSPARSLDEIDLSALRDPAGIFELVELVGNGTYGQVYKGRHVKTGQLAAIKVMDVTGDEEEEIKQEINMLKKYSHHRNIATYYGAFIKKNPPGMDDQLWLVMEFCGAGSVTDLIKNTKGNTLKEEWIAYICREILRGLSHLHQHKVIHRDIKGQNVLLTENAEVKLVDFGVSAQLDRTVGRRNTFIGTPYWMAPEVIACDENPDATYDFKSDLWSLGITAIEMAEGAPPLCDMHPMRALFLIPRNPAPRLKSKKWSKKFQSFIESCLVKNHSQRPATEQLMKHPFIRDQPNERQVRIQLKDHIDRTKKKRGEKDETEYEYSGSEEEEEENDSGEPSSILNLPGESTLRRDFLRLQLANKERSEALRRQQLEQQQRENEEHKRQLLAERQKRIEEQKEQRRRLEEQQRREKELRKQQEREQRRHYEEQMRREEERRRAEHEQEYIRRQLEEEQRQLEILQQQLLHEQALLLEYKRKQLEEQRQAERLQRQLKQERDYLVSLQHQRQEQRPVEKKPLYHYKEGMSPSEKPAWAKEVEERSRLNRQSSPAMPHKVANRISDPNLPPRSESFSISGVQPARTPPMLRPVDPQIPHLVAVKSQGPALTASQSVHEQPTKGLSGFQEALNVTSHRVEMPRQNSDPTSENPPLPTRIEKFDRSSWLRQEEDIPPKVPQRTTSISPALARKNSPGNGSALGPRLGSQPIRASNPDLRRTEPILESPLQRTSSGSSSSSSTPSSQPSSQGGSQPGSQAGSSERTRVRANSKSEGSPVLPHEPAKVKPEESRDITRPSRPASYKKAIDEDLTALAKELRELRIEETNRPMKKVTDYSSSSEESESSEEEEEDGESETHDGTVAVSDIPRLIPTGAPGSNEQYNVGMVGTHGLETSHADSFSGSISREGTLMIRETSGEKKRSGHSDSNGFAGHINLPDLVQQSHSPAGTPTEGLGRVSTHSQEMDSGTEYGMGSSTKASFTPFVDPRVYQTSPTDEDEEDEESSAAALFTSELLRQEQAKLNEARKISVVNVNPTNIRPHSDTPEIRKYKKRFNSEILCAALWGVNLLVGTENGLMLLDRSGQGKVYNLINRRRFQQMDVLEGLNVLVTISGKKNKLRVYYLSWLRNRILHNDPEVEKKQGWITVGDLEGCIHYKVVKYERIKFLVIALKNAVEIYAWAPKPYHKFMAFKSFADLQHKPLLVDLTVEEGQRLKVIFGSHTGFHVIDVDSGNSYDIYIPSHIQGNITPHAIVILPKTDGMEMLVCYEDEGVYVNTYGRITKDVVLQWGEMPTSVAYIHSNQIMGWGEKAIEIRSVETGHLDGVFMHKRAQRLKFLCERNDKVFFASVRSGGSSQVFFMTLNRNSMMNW
Sequence of MAP4K4 (h) (O95819 whole entry): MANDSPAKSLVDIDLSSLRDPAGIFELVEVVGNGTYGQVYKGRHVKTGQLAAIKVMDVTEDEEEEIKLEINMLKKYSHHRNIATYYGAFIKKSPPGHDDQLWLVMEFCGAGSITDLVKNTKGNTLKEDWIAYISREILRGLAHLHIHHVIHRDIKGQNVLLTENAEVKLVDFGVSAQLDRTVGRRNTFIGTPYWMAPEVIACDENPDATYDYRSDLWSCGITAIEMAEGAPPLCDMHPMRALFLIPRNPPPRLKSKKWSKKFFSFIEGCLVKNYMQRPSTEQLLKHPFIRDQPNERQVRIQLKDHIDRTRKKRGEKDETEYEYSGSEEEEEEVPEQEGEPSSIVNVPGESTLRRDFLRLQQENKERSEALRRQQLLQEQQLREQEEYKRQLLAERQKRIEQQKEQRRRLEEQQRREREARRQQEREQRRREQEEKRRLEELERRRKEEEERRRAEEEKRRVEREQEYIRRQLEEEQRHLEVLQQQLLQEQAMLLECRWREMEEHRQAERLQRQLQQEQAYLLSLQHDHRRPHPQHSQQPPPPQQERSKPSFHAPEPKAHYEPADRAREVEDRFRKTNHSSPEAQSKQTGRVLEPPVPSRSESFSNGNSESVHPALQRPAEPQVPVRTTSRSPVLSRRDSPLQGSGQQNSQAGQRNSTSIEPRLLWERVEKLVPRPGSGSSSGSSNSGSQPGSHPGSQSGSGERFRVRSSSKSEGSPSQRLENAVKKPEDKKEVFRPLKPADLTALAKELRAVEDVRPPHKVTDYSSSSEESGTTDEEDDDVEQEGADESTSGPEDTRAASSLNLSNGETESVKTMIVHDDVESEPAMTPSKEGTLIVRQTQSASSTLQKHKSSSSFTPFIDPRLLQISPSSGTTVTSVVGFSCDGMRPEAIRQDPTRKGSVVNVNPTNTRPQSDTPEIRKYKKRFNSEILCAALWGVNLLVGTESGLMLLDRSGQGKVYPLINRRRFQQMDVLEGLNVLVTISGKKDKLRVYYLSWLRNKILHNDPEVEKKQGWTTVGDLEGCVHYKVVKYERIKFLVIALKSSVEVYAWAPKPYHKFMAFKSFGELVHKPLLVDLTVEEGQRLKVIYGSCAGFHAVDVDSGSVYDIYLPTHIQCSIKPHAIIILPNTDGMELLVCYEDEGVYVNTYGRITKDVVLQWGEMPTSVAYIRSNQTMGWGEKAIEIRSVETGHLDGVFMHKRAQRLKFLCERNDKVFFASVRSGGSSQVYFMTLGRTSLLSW

With `CC(=O)Nc1ccc(C(=O)Nc2sc(Nc3ccccc3)nc2C(N)=O)cc1` [5-(4-acetamidobenzamido)-2-(phenylamino)-1,3-thiazole-4-carboxamide], the “collagen type 1 alpha 1 (COL1A1) mRNA expression” value in test [1] was “decreased”. Further, in test [1] (with TGF-beta treatment), the “effect of TGF-beta treatment on the COL1A1 mRNA expression” value is reported as “inhibited”.

`O=C(Nc1ccncc1F)c1ccc(-c2c(-c3ccc(F)cc3)ncn2[C@@H]2CC[C@H](O)C2)o1` (racemic) [Compound A-63, rac-5-(4-(4-fluorophenyl)-1-((1R,3S)-3-hydroxycyclopentyl)-1H-imidazol-5-yl)-N-(3-fluoropyridin-4-yl)furan-2-carboxamide]: the IC50 is 9.32 nM at TNIK and 4.72 nM at MAP4K4 (h). Besides, in test [2], the EC50 was found to be 0.286 µM.

The values are drawn from patent US11739078B2, “Methods of inhibiting kinases” (INSILICO MEDICINE IP LIMITED, priority 2019, dated 2023).
